Experimental data reported in US4145444A, “Anti-inflammatory agent of benzoyl derivative” (priority 1977, dated 1979).
Like-named read-outs stand apart in the source and are kept apart here.

What was measured:
[1] = tested on: thrombus; assay: Inhibiting effect on thrombosis (by-pass between left juglar vein and right carotid artery, silk thread); assay type: in vivo, SD type male rates; conditions: Rattus norvegicus; 100 mg/kg oral, 5 hours before first blood circulation, rats; read-out: Thrombosis inh.: thrombosis inhibition rate
Method: The inhibiting effects of the samples of the invention on thrombosis were tested by the following test method.
A 0.5 ml of 50 μ/ml of the heparin physiological saline was added through the polyethylene tube before the first blood circulation. After the blood circulation for 15 minutes, the circulation was stopped in the middle of the tubing at artery side with a pinch cock.
Then, 0.2 ml of the heparin physiological saline was added to remove the blood coagulates on the tubing wall and another new polyethylene tubing filled with the heparin solution and containing a piece of new silk thread was attached between the venous and artery tubing ends.
The blood circulation was reestablished by opening the pinch cock. After 15 minutes, the wet weight of thrombus on the silk thread was similarly measured.
In the same manner, the third circulation was performed and wet weight of thrombus measured.
The amount of thrombus was given by the equation A. [formula] Each sample was suspended in an aqueous solution of sodium carboxymethyl cellulose and the oral dose of the suspension (100 mg/kg) was performed at 5 hours before the first blood circulation.
The amount of thrombus after the oral dose of the sample was calculated in the same manner as that of control circulations.
The thrombosis inhibition rate was given by the equation B. [formula]

[2] = tested on: platelet; assay: Blood platelet aggregation inhibiting effect (collagen-induced); assay type: cell-based, rabbits; conditions: Oryctolagus cuniculus, Platelet; 10^-4 mole, collagen inducer, rabbit PRP; read-out: Blood platelet agg. inh.: percentage inhibition of platelet aggregation
Source text: Male rabbits (Japan original white strain 3.3 to 3.6 kg) were anesthetized with Thiopental sodium and blood was sampled from the carotid artery.

[3] = tested on: hind paws of male rats; assay: Anti-inflammatory effect: acute carragheenin edema method; assay type: in vivo; conditions: Rattus norvegicus, read-out: Anti-inf.: edema inhibition rate
Method: The edema was induced by subcutaneous injection of 1% carragheenin suspension in saline to the hind paws of male rats weighting 150 to 180 g. Each sample was orally given at the dosage of 100 mg/kg just before the inoculation of carragheenin.

[4] = tested on: male mice; assay: Analgesic effect: painful stretchings following intraperitoneal 0.7% acetic acid; conditions: Mus musculus, po, read-out: Analgesic: percentage diminition of times of painful stretching
Method: Each sample was orally administered in the dosage of 100 mg/kg before injection of acetic acid.

[5] = 100 mg/kg oral, carragheenin edema, male rats (Table 2)

| SMILES | inhibition in vivo at 100 mg/kg [1] | inhibition at 100 µM [2] | inhibition in vivo at 100 mg/kg [3, 5] | inhibition in vivo at 100 mg/kg [4] | inhibition in vivo at 100 mg/kg ([3]; po) |
| --- | --- | --- | --- | --- | --- |
| CCCCCc1ccc(C(=O)c2ccc(C)cc2)cc1 [compound 84] | 16% | 8.6% | 28.4% | 15.3% | – |
| CCCCCCCc1ccc(C(=O)c2ccc(C)cc2)cc1 [compound 85] | 16.2% | 18.7% | – | 10.2% | 18.7% |
| Cc1ccc(C(=O)c2c(C)cc(C)cc2C)cc1 [compound 86] | 35.6% | 28.3% | 17.7% | 8.3% | – |
| CCCc1ccc(C(=O)c2cccc(C)c2)cc1 [compound 87] | 25.8% | 30.1% | 18.7% | 11.2% | – |
| CCCCc1ccc(C(=O)c2cccc(C)c2)cc1 [compound 88] | 29.3% | 24.5% | 21.6% | 5.6% | – |
| CCCCCc1ccc(C(=O)c2cccc(C)c2)cc1 [compound 89] | 13.2% | 22.6% | 27.6% | 4.3% | – |
| CCCc1ccc(C(=O)c2ccccc2C)cc1 [compound 90] | 15% | 10.8% | 19.7% | 13.7% | – |
| Cc1ccccc1C(=O)c1c(C)c(C)cc(C)c1C [compound 91] | 31% | 14.7% | 21.4% | 15.2% | – |
| CCCc1ccc(C(=O)c2ccc(OC)cc2)cc1 [compound 93] | 26.8% | 24.4% | 20.4% | 14.7% | – |
| CCCCOc1ccc(C(=O)c2c(C)cc(C)cc2C)cc1 [compound 94] | 37.4% | 27.9% | 26.6% | 15.8% | – |
| CCCCOc1ccc(C(=O)c2ccc(CCCC)cc2)cc1 [compound 95] | 32.3% | 30% | 17.1% | 14.5% | – |
| CCCc1ccc(C(=O)c2ccc(C)cc2C)cc1 [compound 96] | 36.7% | 28.5% | 26.1% | 18.9% | – |
| CCCc1ccc(C(=O)c2c(C)cc(C)cc2C)cc1 [compound 97] | 37.3% | 26.8% | 13% | 14.7% | – |
| CCCCc1ccc(C(=O)c2ccc(CCC)cc2)cc1 [compound 98] | 35.4% | 28.3% | 31.9% | 16.4% | – |
| CCCCCc1ccc(C(=O)c2ccc(CCC)cc2)cc1 [compound 99] | 30.3% | 29.5% | 34.1% | 15.5% | – |
| CCCCCCCc1ccc(C(=O)c2ccc(CCCC)cc2)cc1 [compound 100] | 27.6% | 22.4% | 14% | 10% | – |
| CCCCCCCCc1ccc(C(=O)c2ccc(CCCC)cc2)cc1 [compound 101] | 31.4% | 27.9% | 23.1% | 18.3% | – |
| CCCCCCCCCc1ccc(C(=O)c2ccc(CCCC)cc2)cc1 [compound 102] | 29.7% | 30.4% | 22.4% | 15.2% | – |
| CCCCCCc1ccc(C(=O)c2c(C)cc(C)cc2C)cc1 [compound 103] | 35.8% | 29.5% | 29.7% | 14.2% | – |
| CCCc1ccc(C(=O)c2ccc(O)cc2)cc1 [compound 104] | 30.5% | 25.3% | 27.4% | 13.2% | – |
| CCCCCc1ccc(C(=O)c2ccc(O)cc2)cc1 [compound 105] | 31.4% | 24.1% | 33.6% | 14.1% | – |
